Measurements from US9302999B2, “Substituted triazoles as herbicides” (E. I. DU PONT DE NEMOURS AND COMPANY, priority 2012, dated 2016).
Read-outs that look alike come from different tables or passages of the source.

Columns and labels:
Assay type in all cases: in vivo
[1] = tested on: barnyardgrass (Echinochloa crus-galli); experiment: Test A pre-/postemergence: barnyardgrass; conditions: for pest or weed control at 125 g/ha / pest or weed control at 500 g/ha: Echinochloa crus-galli, 240 h
Procedure, shortened: (§1)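 Injury is scored visually on a scale where 0 means no effect and 100 complete control, comparing treated with untreated plants after approximately ten greenhouse days. Both preemergence and postemergence applications are made at the same time.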

[2] = tested on: crabgrass, large (large crabgrass, Digitaria sanguinalis); experiment: Test A pre-/postemergence: crabgrass, large; conditions: for pest or weed control at 125 g/ha / pest or weed control at 500 g/ha: Digitaria sanguinalis, 240 h
Source text: (§2) Seeds of barnyardgrass (Echinochloa crus-galli), crabgrass, large (large crabgrass, Digitaria sanguinalis), foxtail, giant (giant foxtail, Setaria faberii), morningglory (Ipomoea spp.), pigweed (Amaranthus retroflexus), velvetleaf (Abutilon theophrasti), wheat (Triticum aestivum), and corn (Zea mays) were planted into a blend of loam soil and sand and treated preemergence with a directed soil spray using test chemicals formulated in a non-phytotoxic solvent mixture which included a surfactant. At the same time these species were also treated with postemergence applications of test chemicals formulated in the same manner.
(§3) Plants ranged in height from two to ten cm and were in the one- to two-leaf stage for the postemergence treatment. Treated plants and untreated controls were maintained in a greenhouse for approximately ten days, after which time all treated plants were compared to untreated controls and visually evaluated for injury. Plant response ratings, summarized in Table A, are based on a 0 to 100 scale where 0 is no effect and 100 is complete control. A dash (-) response means no test result.

[3] = tested on: foxtail, giant (giant foxtail, Setaria faberii); experiment: Test A pre-/postemergence: foxtail, giant; conditions: for pest or weed control at 125 g/ha / pest or weed control at 500 g/ha: Setaria faberi, 240 h
Source text: as §2, §3

[4] = tested on: morningglory (Ipomoea spp.); experiment: Test A pre-/postemergence: morningglory; conditions: for pest or weed control at 125 g/ha / pest or weed control at 500 g/ha: Ipomoea, 240 h
Procedure, shortened: as §1

[5] = tested on: pigweed (Amaranthus retroflexus); experiment: Test A pre-/postemergence: pigweed; conditions: for pest or weed control at 125 g/ha / pest or weed control at 500 g/ha: Amaranthus retroflexus, 240 h
Source text: as §2, §3

[6] = tested on: velvetleaf (Abutilon theophrasti); experiment: Test A pre-/postemergence: velvetleaf; conditions: for pest or weed control at 125 g/ha / pest or weed control at 500 g/ha: Abutilon theophrasti, 240 h
Source text: as §2, §3

[7] = tested on: wheat (Triticum aestivum); experiment: Test A pre-/postemergence: wheat; conditions: for plant injury at 125 g/ha / plant injury at 500 g/ha: Triticum aestivum, 240 h
Source text: as §2, §3

corn (Zea mays) = experiment: Test A pre-/postemergence: corn
Procedure, shortened: as §1

[8] = Postemergence, 125 g ai/ha, 0 to 100 scale, 0 is no effect, 100 is complete control
[9] = Postemergence, 500 g ai/ha, visual rating on 0 to 100 scale (0 no effect, 100 complete control), approximately ten days
[10] = Preemergence, 125 g ai/ha, 0 to 100 scale where 0 is no effect and 100 is complete control
[11] = Preemergence, 500 g ai/ha, 0 to 100 scale (0 no effect, 100 complete control)

Work on `OCc1nn(-c2ccc(C(F)(F)F)cc2)nc1Oc1cccc(OC(F)(F)F)c1` [Compound 114, 5-[3-(trifluoromethoxy)phenoxy]-2-[4-(trifluoromethyl)phenyl]-2H-1,2,3-triazole-4-methanol] yielded a pest or weed control at 125 g/ha ([1]; post-emergence, Postemergence, 125 g ai/ha, 0 to 100 scale, 0 is no effect, 100 is complete control, read-out: Barnyardgrass plant response rating) of 30%, a pest or weed control at 500 g/ha ([1]; post-emergence, Postemergence, 500 g ai/ha, visual rating on 0 to 100 scale (0 no effect, 100 complete control), approximately ten days, read-out: Barnyardgrass plant response rating) of 30% and a pest or weed control at 125 g/ha ([1]; pre-emergence, Preemergence, 125 g ai/ha, 0 to 100 scale where 0 is no effect and 100 is complete control, read-out: Plant response rating, Barnyardgrass) of 0%. For the same compound, the pest or weed control at 500 g/ha ([1]; pre-emergence, Preemergence, 500 g ai/ha, 0 to 100 scale (0 no effect, 100 complete control), read-out: Plant response rating, Barnyardgrass) was 0%, the pest or weed control at 125 g/ha ([2]; post-emergence, Postemergence, 125 g ai/ha, 0 to 100 scale, 0 is no effect, 100 is complete control, read-out: Crabgrass, Large plant response rating) was 30% and the pest or weed control at 500 g/ha ([2]; post-emergence, Postemergence, 500 g ai/ha, visual rating on 0 to 100 scale (0 no effect, 100 complete control), approximately ten days, read-out: Crabgrass, Large plant response rating) was 70%. It also gave a pest or weed control at 125 g/ha ([2]; pre-emergence, Preemergence, 125 g ai/ha, 0 to 100 scale where 0 is no effect and 100 is complete control, read-out: Plant response rating, Crabgrass, Large) of 0%, a pest or weed control at 500 g/ha ([2]; pre-emergence, Preemergence, 500 g ai/ha, 0 to 100 scale (0 no effect, 100 complete control), read-out: Plant response rating, Crabgrass, Large) of 30% and a pest or weed control at 125 g/ha ([3]; post-emergence, Postemergence, 125 g ai/ha, 0 to 100 scale, 0 is no effect, 100 is complete control, read-out: Foxtail, Giant plant response rating) of 30%. It also gave a pest or weed control at 500 g/ha ([3]; post-emergence, Postemergence, 500 g ai/ha, visual rating on 0 to 100 scale (0 no effect, 100 complete control), approximately ten days, read-out: Foxtail, Giant plant response rating) of 40%, a pest or weed control at 125 g/ha ([3]; pre-emergence, Preemergence, 125 g ai/ha, 0 to 100 scale where 0 is no effect and 100 is complete control, read-out: Plant response rating, Foxtail, Giant) of 0% and a pest or weed control at 500 g/ha ([3]; pre-emergence, Preemergence, 500 g ai/ha, 0 to 100 scale (0 no effect, 100 complete control), read-out: Plant response rating, Foxtail, Giant) of 10%. The pest or weed control at 125 g/ha ([4]; post-emergence, Postemergence, 125 g ai/ha, 0 to 100 scale, 0 is no effect, 100 is complete control, read-out: Morningglory plant response rating) was 60%, the pest or weed control at 500 g/ha ([4]; post-emergence, Postemergence, 500 g ai/ha, visual rating on 0 to 100 scale (0 no effect, 100 complete control), approximately ten days, read-out: Morningglory plant response rating) was 90% and the pest or weed control at 125 g/ha ([4]; pre-emergence, Preemergence, 125 g ai/ha, 0 to 100 scale where 0 is no effect and 100 is complete control, read-out: Plant response rating, Morningglory) was 10%. For the same compound, the pest or weed control at 500 g/ha ([4]; pre-emergence, Preemergence, 500 g ai/ha, 0 to 100 scale (0 no effect, 100 complete control), read-out: Plant response rating, Morningglory) was 30%, the pest or weed control at 125 g/ha ([5]; post-emergence, Postemergence, 125 g ai/ha, 0 to 100 scale, 0 is no effect, 100 is complete control, read-out: Pigweed plant response rating) was 80% and the pest or weed control at 500 g/ha ([5]; post-emergence, Postemergence, 500 g ai/ha, visual rating on 0 to 100 scale (0 no effect, 100 complete control), approximately ten days, read-out: Pigweed plant response rating) was 90%. The pest or weed control at 125 g/ha ([5]; pre-emergence, Preemergence, 125 g ai/ha, 0 to 100 scale where 0 is no effect and 100 is complete control, read-out: Plant response rating, Pigweed) was 0%, the pest or weed control at 500 g/ha ([5]; pre-emergence, Preemergence, 500 g ai/ha, 0 to 100 scale (0 no effect, 100 complete control), read-out: Plant response rating, Pigweed) was 10% and the pest or weed control at 125 g/ha ([6]; post-emergence, Postemergence, 125 g ai/ha, 0 to 100 scale, 0 is no effect, 100 is complete control, read-out: Velvetleaf plant response rating) was 30%. For the same compound, the pest or weed control at 500 g/ha ([6]; post-emergence, Postemergence, 500 g ai/ha, visual rating on 0 to 100 scale (0 no effect, 100 complete control), approximately ten days, read-out: Velvetleaf plant response rating) was 50%, the pest or weed control at 125 g/ha ([6]; pre-emergence, Preemergence, 125 g ai/ha, 0 to 100 scale where 0 is no effect and 100 is complete control, read-out: Plant response rating, Velvetleaf) was 0% and the pest or weed control at 500 g/ha ([6]; pre-emergence, Preemergence, 500 g ai/ha, 0 to 100 scale (0 no effect, 100 complete control), read-out: Plant response rating, Velvetleaf) was 10%. The plant injury at 125 g/ha ([7]; post-emergence, Postemergence, 125 g ai/ha, 0 to 100 scale, 0 is no effect, 100 is complete control, read-out: Wheat plant response rating) was 10%, the plant injury at 500 g/ha ([7]; post-emergence, Postemergence, 500 g ai/ha, visual rating on 0 to 100 scale (0 no effect, 100 complete control), approximately ten days, read-out: Wheat plant response rating) was 30% and the plant injury at 125 g/ha ([7]; pre-emergence, Preemergence, 125 g ai/ha, 0 to 100 scale where 0 is no effect and 100 is complete control, read-out: Plant response rating, Wheat) was 0%. It also gave a plant injury at 500 g/ha ([7]; pre-emergence, Preemergence, 500 g ai/ha, 0 to 100 scale (0 no effect, 100 complete control), read-out: Plant response rating, Wheat) of 0%, a plant injury at 125 g/ha (corn (Zea mays); Zea mays, post-emergence, 240 h, Postemergence, 125 g ai/ha, 0 to 100 scale, 0 is no effect, 100 is complete control, read-out: Corn plant response rating) of 20% and a plant injury at 500 g/ha (corn (Zea mays); Zea mays, post-emergence, 240 h, Postemergence, 500 g ai/ha, visual rating on 0 to 100 scale (0 no effect, 100 complete control), approximately ten days, read-out: Corn plant response rating) of 30%. The Corn plant response rating (crop injury, 0 = no effect, 100 = complete kill) at 125 g/ha (corn (Zea mays); Zea mays, pre-emergence, 240 h, Preemergence, 125 g ai/ha, 0 to 100 scale where 0 is no effect and 100 is complete control) was 0% and the Corn plant response rating (crop injury, 0 = no effect, 100 = complete kill) at 500 g/ha (corn (Zea mays); Zea mays, pre-emergence, 240 h, Preemergence, 500 g ai/ha, 0 to 100 scale (0 no effect, 100 complete control)) was 0%.
With `Cc1nn(-c2ccc(F)cc2)nc1Oc1cc(C(F)(F)F)ccn1` [Compound 128] the “Barnyardgrass plant response rating” value [1, 8] was 0, the “Barnyardgrass plant response rating” value [1, 9] was 20 and the “Plant response rating, Barnyardgrass” value [1, 10] was 0. For the same compound, the “Plant response rating, Barnyardgrass” value [1, 11] was 0, the “Crabgrass, Large plant response rating” value [2, 8] was 10 and the “Crabgrass, Large plant response rating” value [2, 9] was 20. The “Plant response rating, Crabgrass, Large” value [2, 10] was 0, the “Plant response rating, Crabgrass, Large” value [2, 11] was 20 and the “Foxtail, Giant plant response rating” value [3, 8] was 0. The “Foxtail, Giant plant response rating” value [3, 9] was 10, the “Plant response rating, Foxtail, Giant” value [3, 10] was 0 and the “Plant response rating, Foxtail, Giant” value [3, 11] was 20. The “Morningglory plant response rating” value [4, 8] was 30, the “Morningglory plant response rating” value [4, 9] was 30 and the “Plant response rating, Morningglory” value [4, 10] was 0. For the same compound, the “Plant response rating, Morningglory” value [4, 11] was 20, the “Pigweed plant response rating” value [5, 8] was 30 and the “Pigweed plant response rating” value [5, 9] was 40. The “Plant response rating, Pigweed” value [5, 10] was 0, the “Plant response rating, Pigweed” value [5, 11] was 0 and the “Velvetleaf plant response rating” value [6, 8] was 20. For the same compound, the “Velvetleaf plant response rating” value [6, 9] was 30, the “Plant response rating, Velvetleaf” value [6, 10] was 0 and the “Plant response rating, Velvetleaf” value [6, 11] was 0. The “Wheat plant response rating” value [7, 8] was 0, the “Wheat plant response rating” value [7, 9] was 0 and the “Plant response rating, Wheat” value [7, 10] was 0. For the same compound, the “Plant response rating, Wheat” value [7, 11] was 0, the “Corn plant response rating” value (corn (Zea mays); [8]) was 10 and the “Corn plant response rating” value (corn (Zea mays); [9]) was 10. The “Plant response rating, Corn” value (corn (Zea mays); [10]) was 0 and the “Plant response rating, Corn” value (corn (Zea mays); [11]) was 0.
